In brackets after ≈: the same amount, converted by molar mass. Entries after “also recorded” stand apart in the source; their conditions may differ. Where two headings read alike, the source gives them in different places.
Legend:
[1] = tested on: Candida albicans (SC5314); experiment: Broth microdilution MIC (Example 1); assay type: cell-based; settings: Candida albicans, SC5314; in the presence of 1 μg/mL fluconazole; read-out: MIC against Candida albicans (SC5314)
Experimental: (§1) MICs/minimum effective concentrations (MECs) were determined for each of the novel analogs against the three major human fungal pathogens, A. fumigatus, C. neoformans, and C. albicans. […] Thus, analogs of FK506 and FK520 can tolerate up to 100-fold reduction in antifungal activity and still be considered for in vivo testing. For C. neoformans, MICs were the most uniform and ranged from 0.2 to 2 μg/mL, which is between 4- and 40-fold reduced for antifungal activity.
(§2) In vitro antifungal activities of FK506, FK520, and analogs were assessed in RPMI 1640 (Sigma-Aldrich) for all strains tested. MICs/minimum effective concentrations (MECs) for each drug were measured using modified Clinical and Laboratory Standards Institute (CLSI) M38-A2 and M27-A3 standard in vitro antifungal susceptibility protocols. Broth microdilution assays for MIC/MEC assessment were performed as described previously (see, Juvvadi P R, et al., 2019, Nat Commun 10:4275). All antifungal assays with C. neoformans were performed at 37° C. Antifungal susceptibility testing for C. albicans was performed in the presence of a uniform 1 μg/mL concentration of fluconazole to sensitize the organism to calcineurin inhibition.

[2] = tested on: Cryptococcus neoformans (H99); experiment: Broth microdilution MIC (Example 1); assay type: cell-based; settings: for MIC: Cryptococcus neoformans, 37° C., read-out: MIC against Cryptococcus neoformans (H99)
Experimental: as §1, §2

Aspergillus fumigatus = experiment: Broth microdilution MIC/MEC (Example 1); assay type: cell-based; settings: Aspergillus fumigatus; strain Af293; read-out: MEC against Aspergillus fumigatus (Af293)
Experimental: as §1
To assess the antifungal activity against other human fungal pathogens, JH-FK-05 was selected to test against a panel of pathogenic molds and drug-resistant A. fumigatus strains (Table 4). JH-FK-05 registered MECs as low as 1 μg/mL for some of these highly recalcitrant species, such as Mucor circinelloides, Rhizopus oryzae, and pan azole-resistant A. fumigatus (strain F14946).
as §2

C. neoformans = experiment: MIC assay (Example 4); assay type: cell-based, Cryptococcus neoformans; settings: for MIC: Cryptococcus neoformans
Experimental: Both JH-FK-10 and JH-FK-11 maintained in vitro antifungal activity against C. neoformans with MICs of 0.8 and 1.6 μg/mL, respectively (Table 11).
In vitro antifungal activity of FK506, FK520, and analogs was assessed in RPMI 1640 (Sigma-Aldrich) for all strains tested. Minimum inhibitory concentrations (MIC) for each drug were measured using modified Clinical and Laboratory Standards Institute (CLSI) M38-A2 and M27-A3 standard in vitro antifungal susceptibility protocols. Broth microdilution assays for MIC assessment were performed as previously described. All antifungal assays with C. neoformans were performed at 37° C.

[3] = tested on: IL-2 expression in primary murine CD4+ T cells; experiment: In vitro immunosuppressive activity, IL-2 expression (Example 4); assay type: cell-based, mouse; settings: for IC50: Mus musculus, CD4+ T
Experimental: Spleen and lymph nodes were collected from C57BL/6 mice and homogenized through a 40 μm filter. Pan-CD4^+ T cells were enriched using MagniSort Mouse CD4 T cell Kit (eBioscience) according to the manufacturer's protocol. Thereafter, CD4+CD25−CD44lo CD62Lhi naïve T cells were FACS-sorted. The naïve CD4+ T cells were grown in Iscove's Modified Dulbecco's Medium (IMDM) supplemented with glutamine, penicillin, streptomycin, gentamicin, 2-mercaptoethanol, and 10% FBS. Cells were then cultured on anti-hamster IgG coated plates in the presence of hamster anti-CD3 epsilon and anti-CD28 antibodies (BD Biosciences), neutralizing anti-IL-4 antibody (eBioscience), recombinant IL-12 (10 ng/mL), and recombinant IL-2 (50 U/mL) for 72 h. During this period, cells were grown in the presence of 2× serially diluted FK506, FK520, or analog suspended in DMSO for 72 h. During the last 4 h of culture, phorbol 12-myristate 13-acetate (PMA; Sigma), ionomycin (Sigma), and GolgiStop (BD Biosciences) were added to the culture to facilitate detection of intracellular cytokines via flow cytometry.
Live cells were stained with FITC-conjugated anti-CD4 antibody (eBioscience) and Fixable Viability Dye eFluor 506 (eBioscience) on ice, followed by fixation and permeabilization using the Foxp3 Transcription Factor Staining Kit (eBioscience). Intracellular staining was performed at room temperature using PE-conjugated anti-IL-2 antibody (eBioscience), followed by analysis with a BD LSRFortessa X-20 flow cytometer.

[4] = tested on: C. neoformans growth versus IL-2 in murine T cells; experiment: Therapeutic index score (immunosuppressive fold change to antifungal fold change relative to FK506); parameters: species or system Cryptococcus neoformans; mouse; settings: Table 12, Example 4; FK506 = 1.0
Description: To assess the therapeutic potential for these compounds, it was important to develop an approach to score and rank them based on antifungal and immunosuppressive activities. The therapeutic index score (TIscore) is a ratio of the immunosuppressive fold change to the antifungal fold change, with all values relative to the baseline FK506 activity (FIG. 6B). A TIscore of >1.0 indicates an increase in fungal specificity because the fold change of the immunosuppressive reduction is greater than the antifungal activity reduction. As an example, JH-FK-05 is 20-fold reduced for antifungal activity but about 180-fold reduced for immunosuppression. Therefore, the TIscore of JH-FK-05 is 9.1 (TIscore=182/20). The top two analogs were JH-FK-02 (TIscore=9.7) and JH-FK-05 (TIscore=9.1). Due to the similar TIscore, JH-FK-05 was prioritized to advance to animal trials on the merit of more pronounced antifungal activity compared to JH-FK-02.
Based on the in vitro fungal and mammalian calcineurin inhibition data, the panel of FK520 analogs was assessed and ranked. Therapeutic index (TI) scores were used to quantify the effects of structural modification on the compounds (Table 8). Therapeutic index scores were calculated for each analog as the ratio of relative change in immunosuppressive and antifungal activities compared to FK506 as previously utilized (see, I-Toy M J, et at. 2022. mBio 13:e0104922). This ratio of therapeutic benefit and host toxicity, or fungal and mammalian calcineurin inhibition, allowed us to quantify and rank these analogs. […] This is the greatest TI found within the library and allowed us to identify JH-FK-08 as a lead candidate for an in vivo study. Tolerability of JH-FK-08 was assessed by monitoring animal responses to drug dosing across 14 days, including changes in weight, fur condition, and behavior. A maximum dose of 40 mg/kg was tested in once a day dosing, and due to solubility limitations, the tolerability of JH-FK-08 at 60 and 80 mg/kg total daily doses was assessed by dosing two equal doses per day (FIG. 14). […] It should be noted that analogs JH-FK-12 and JH-FK-23 are also promising candidates with respective Tis of 24.7 and 24.5.

Row | SMILES | MIC [1] [µg/mL] | MIC [2] [µg/mL] | minimal effective concentration (Aspergillus fumigatus) [µg/mL] | also measured
1 | C=CC[C@@H]1/C=C(\C)C[C@H](C)C[C@H](OC)[C@H]2O[C@@](O)(C(=O)C(=O)N3CCCC[C@H]3C(=O)O[C@H](/C(C)=C/[C@@H]3CC[C@@H](O)[C@H](OC)C3)[C@H](C)[C@@H](O)C/C1=N/NC(C)=O)[C@H](C)C[C@@H]2OC [JH-FK-01] | 0.4 | 1 (≈ 1.16 µM) | 1 | 
2 | C=CC[C@@H]1/C=C(\C)C[C@H](C)C[C@H](OC)[C@H]2O[C@@](O)(C(=O)C(=O)N3CCCC[C@H]3C(=O)O[C@H](/C(C)=C/[C@@H]3CC[C@@H](O)[C@H](OC)C3)[C@H](C)[C@@H](O)C/C1=N/NC(=O)c1ccccc1)[C@H](C)C[C@@H]2OC [JH-FK-03] | 0.8 | 1 (≈ 1.08 µM) | 1 | 
3 | C=CC[C@@H]1/C=C(\C)C[C@H](C)C[C@H](OC)[C@H]2O[C@@](O)(C(=O)C(=O)N3CCCC[C@H]3C(=O)O[C@H](/C(C)=C/[C@@H]3CC[C@@H](O)[C@H](OC)C3)[C@H](C)[C@@H](O)CC1=NNC(=O)CN(C)C)[C@H](C)C[C@@H]2OC [JH-FK-04] | 6.25 | 2 (≈ 2.21 µM) | 2 | 
4 | CC[C@@H]1/C=C(\C)C[C@H](C)C[C@H](OC)[C@H]2O[C@@](O)(C(=O)C(=O)N3CCCC[C@H]3C(=O)O[C@H](/C(C)=C/[C@@H]3CC[C@@H](O)[C@H](OC)C3)[C@H](C)[C@@H](O)C/C1=N/NC(=O)C(F)(F)F)[C@H](C)C[C@@H]2OC [JH-FK-07] | 0.2 | 0.2 (≈ 0.222 µM) | 1.25 | broad-spectrum antifungal activity / MIC ranking ([2]; C. neoformans, C. albicans, A. fumigatus): maintained high levels of broad-spectrum antifungal activity across the three species; also recorded: had the lowest MICs for both C. neoformans and C. albicans
5 | CC[C@@H]1/C=C(\C)C(O)[C@H](C)C[C@H](OC)[C@H]2O[C@@](O)(C(=O)C(=O)N3CCCC[C@H]3C(=O)O[C@H](/C(C)=C/[C@@H]3CC[C@@H](O)[C@H](OC)C3)[C@H](C)[C@@H](O)CC1=O)[C@H](C)C[C@@H]2OC (some centres unmarked) [JH-FK-10] |  |  |  | MIC (C. neoformans; 37° C., Table 11, read-out: C. neoformans MIC): 0.8 µg/mL (≈ 0.99 µM); MIC (C. neoformans; read-out: C. neoformans MIC, 37° C., Table 12): 0.8 µg/mL (≈ 0.99 µM); immunosuppressive activity [3]: detectable immunosuppressive activities; IC50 ([3]; Table 12): 5.7 nM; Therapeutic Index Score [4]: 3.2
6 | CC[C@@H]1/C=C(\C)C(O)[C@H](C)C[C@H](OC)[C@H]2O[C@@](O)(C(=O)C(=O)N3CCCC[C@H]3C(=O)O[C@H](/C(C)=C/C3CC[C@@H](O)[C@H](OC)C3)[C@H](C)[C@@H](O)C/C1=N/NC(C)=O)[C@H](C)C[C@@H]2OC (some centres unmarked) [JH-FK-18] |  |  |  | C. neoformans MIC (C. neoformans; 37° C., Table 13): >50 µg/mL; MIC (C. neoformans; 37° C., Table 13, read-out: C. neoformans MIC): > 50 µg/mL; antifungal activity (C. neoformans; up to a maximum concentration of 50 μg/mL): no detectable antifungal or immunosuppressive activity; also recorded: no detectable biological activity; IL-2 production ([3]; 200 nM): no changes in IL-2 production; IC50 ([3]; Table 13): > 200 nM

Source: patent publication US20260315446A1, “ANTIFUNGAL COMPOUNDS AND USES THEREOF” (priority 2023, published 2026)
